PMC7291858, “An Enhanced Variant Designed From DLP4 Cationic Peptide Against Staphylococcus aureus CVCC 546” (Frontiers in Microbiology, 2020)
Peptide text beside a SMILES is read from it.

System: S. aureus ATCC 43300
Format: cell-based, Staphylococcus aureus
Details: microtiter, serial 2-fold dilutions, 37°C, 16∼20 h, triplicate; – = no activity
Experimental: The minimal inhibitory concentration (MIC) was evaluated by a microtiter plate assay ([Wiegand et al., 2008]). Serial 2-fold dilutions of test peptides were placed into a 96-well plate containing identical bacterial inoculum and incubated at 37°C for 16∼20 h. Vancomycin was used as antibiotic control. The MIC value was defined as the lowest peptide concentration where no visible growth occurred. All tests were made in triplicate.

SMILES	A1 (MIC against S. aureus ATCC 43300)
CC[C@H](C)[C@@H]1NC(=O)[C@@H]2CSSC[C@@H](C(=O)N[C@@H](CCCNC(=N)N)C(=O)N[C@@H](CCCCN)C(=O)O)NC(=O)[C@H](CC(N)=O)NC(=O)[C@@H]3CSSC[C@H](NC(=O)[C@H](C)NC(=O)[C@H](C)NC(=O)[C@H](Cc4c[nH]cn4)NC(=O)CNC(=O)[C@H](C(C)C)NC(=O)[C@H](CCCCN)NC(=O)[C@H](Cc4ccccc4)NC(=O)[C@@H]4CCCN4C(=O)[C@H](CO)NC(=O)[C@H](CC(C)C)NC(=O)[C@H]([C@@H](C)CC)NC(=O)[C@H](CC(=O)O)NC(=O)[C@@H](NC(=O)[C@@H](NC(=O)[C@H](C)N)[C@@H](C)O)CSSC[C@H](NC(=O)[C@H](Cc4c[nH]c5ccccc45)NC(=O)CNC(=O)CNC(=O)[C@H](CCCNC(=N)N)NC(=O)[C@H](CCCCN)NC(=O)CNC(=O)[C@H](CCCNC(=N)N)NC(=O)[C@H](C)NC1=O)C(=O)N[C@@H](CC(=O)O)C(=O)N[C@@H](CCCCN)C(=O)N[C@@H](CCCNC(=N)N)C(=O)N[C@@H](C)C(=O)N[C@@H](C(C)C)C(=O)N3)C(=O)N[C@@H](C)C(=O)N[C@@H](C)C(=O)N[C@@H](Cc1c[nH]cn1)C(=O)N2 [ID4] (HELM PEPTIDE1{A.T.C.D.I.L.S.P.F.K.V.G.H.A.A.C.A.A.H.C.I.A.R.G.K.R.G.G.W.C.D.K.R.A.V.C.N.C.R.K}$PEPTIDE1,PEPTIDE1,3:R3-30:R3|PEPTIDE1,PEPTIDE1,16:R3-36:R3|PEPTIDE1,PEPTIDE1,20:R3-38:R3$$$V2.0; N-terminus and C-terminus assumed; bridges inferred)	32 µg/mL
CC[C@H](C)[C@@H]1NC(=O)[C@@H]2CSSC[C@@H](C(=O)N[C@@H](CCCNC(=N)N)C(=O)N[C@@H](CCCCN)C(=O)O)NC(=O)[C@H](CC(N)=O)NC(=O)[C@@H]3CSSC[C@H](NC(=O)[C@H](C)NC(=O)[C@H](C)NC(=O)[C@H](Cc4c[nH]cn4)NC(=O)CNC(=O)[C@H](C(C)C)NC(=O)[C@H](CCCCN)NC(=O)[C@H](Cc4ccccc4)NC(=O)[C@H](CCCCN)NC(=O)[C@H](CO)NC(=O)[C@H](CC(C)C)NC(=O)[C@H](CC(C)C)NC(=O)[C@H](CC(=O)O)NC(=O)[C@@H](NC(=O)[C@@H](NC(=O)[C@H](C)N)[C@@H](C)O)CSSC[C@H](NC(=O)[C@H](Cc4c[nH]c5ccccc45)NC(=O)CNC(=O)CNC(=O)[C@H](CCCNC(=N)N)NC(=O)[C@H](CCCCN)NC(=O)CNC(=O)[C@H](CCCNC(=N)N)NC(=O)[C@H](C)NC1=O)C(=O)N[C@@H](CC(=O)O)C(=O)N[C@@H](CCCCN)C(=O)N[C@@H](CCCNC(=N)N)C(=O)N[C@@H](C)C(=O)N[C@@H](C(C)C)C(=O)N3)C(=O)N[C@@H](C)C(=O)N[C@@H](C)C(=O)N[C@@H](Cc1c[nH]cn1)C(=O)N2 [ID8] (HELM PEPTIDE1{A.T.C.D.L.L.S.K.F.K.V.G.H.A.A.C.A.A.H.C.I.A.R.G.K.R.G.G.W.C.D.K.R.A.V.C.N.C.R.K}$PEPTIDE1,PEPTIDE1,3:R3-30:R3|PEPTIDE1,PEPTIDE1,16:R3-36:R3|PEPTIDE1,PEPTIDE1,20:R3-38:R3$$$V2.0; N-terminus and C-terminus assumed; bridges inferred)	32 µg/mL
CC[C@H](C)[C@@H]1NC(=O)[C@@H]2CSSC[C@@H](C(=O)N[C@@H](CCCNC(=N)N)C(=O)N[C@@H](CC(N)=O)C(=O)O)NC(=O)[C@H](CC(N)=O)NC(=O)[C@@H]3CSSC[C@H](NC(=O)[C@H](C)NC(=O)[C@H](C)NC(=O)[C@H](Cc4c[nH]cn4)NC(=O)CNC(=O)[C@H](C(C)C)NC(=O)[C@H](CCCCN)NC(=O)[C@H](Cc4ccccc4)NC(=O)[C@@H]4CCCN4C(=O)[C@H](CO)NC(=O)[C@H](CC(C)C)NC(=O)[C@H](CC(C)C)NC(=O)[C@H](CC(=O)O)NC(=O)[C@@H](NC(=O)[C@@H](NC(=O)[C@H](C)N)[C@@H](C)O)CSSC[C@H](NC(=O)[C@H](Cc4c[nH]c5ccccc45)NC(=O)CNC(=O)CNC(=O)[C@H](CCCNC(=N)N)NC(=O)[C@H](CCCCN)NC(=O)CNC(=O)[C@H](CCCNC(=N)N)NC(=O)[C@H](C)NC1=O)C(=O)N[C@@H](CC(=O)O)C(=O)NCC(=O)N[C@@H](CCCNC(=N)N)C(=O)N[C@@H](C)C(=O)N[C@@H](C(C)C)C(=O)N3)C(=O)N[C@@H](C)C(=O)N[C@@H](C)C(=O)N[C@@H](Cc1c[nH]cn1)C(=O)N2 [ID20] (HELM PEPTIDE1{A.T.C.D.L.L.S.P.F.K.V.G.H.A.A.C.A.A.H.C.I.A.R.G.K.R.G.G.W.C.D.G.R.A.V.C.N.C.R.N}$PEPTIDE1,PEPTIDE1,3:R3-30:R3|PEPTIDE1,PEPTIDE1,16:R3-36:R3|PEPTIDE1,PEPTIDE1,20:R3-38:R3$$$V2.0; N-terminus and C-terminus assumed; bridges inferred)	16 µg/mL
CC[C@H](C)[C@@H]1NC(=O)[C@@H]2CSSC[C@@H](C(=O)N[C@@H](CCCNC(=N)N)C(=O)N[C@@H](CCCCN)C(=O)O)NC(=O)[C@H](CC(N)=O)NC(=O)[C@@H]3CSSC[C@H](NC(=O)[C@H](C)NC(=O)[C@H](C)NC(=O)[C@H](Cc4c[nH]cn4)NC(=O)CNC(=O)[C@H](C(C)C)NC(=O)CNC(=O)[C@H](Cc4ccccc4)NC(=O)[C@@H]4CCCN4C(=O)[C@H](CO)NC(=O)[C@H](CC(C)C)NC(=O)[C@H](CC(C)C)NC(=O)[C@H](CC(=O)O)NC(=O)[C@@H](NC(=O)[C@@H](NC(=O)[C@H](C)N)[C@@H](C)O)CSSC[C@H](NC(=O)[C@H](Cc4c[nH]c5ccccc45)NC(=O)CNC(=O)CNC(=O)[C@H](CCCNC(=N)N)NC(=O)[C@H](CCCCN)NC(=O)CNC(=O)[C@H](CCCNC(=N)N)NC(=O)[C@H](C)NC1=O)C(=O)N[C@@H](CC(=O)O)C(=O)N[C@@H](CCCCN)C(=O)N[C@@H](CCCNC(=N)N)C(=O)N[C@@H](C)C(=O)N[C@@H](C(C)C)C(=O)N3)C(=O)N[C@@H](C)C(=O)N[C@@H](C)C(=O)N[C@@H](Cc1c[nH]cn1)C(=O)N2 [ID11] (HELM PEPTIDE1{A.T.C.D.L.L.S.P.F.G.V.G.H.A.A.C.A.A.H.C.I.A.R.G.K.R.G.G.W.C.D.K.R.A.V.C.N.C.R.K}$PEPTIDE1,PEPTIDE1,3:R3-30:R3|PEPTIDE1,PEPTIDE1,16:R3-36:R3|PEPTIDE1,PEPTIDE1,20:R3-38:R3$$$V2.0; N-terminus and C-terminus assumed; bridges inferred)	16 µg/mL
CC[C@H](C)[C@@H]1NC(=O)[C@@H]2CSSC[C@@H](C(=O)N[C@@H](CCCNC(=N)N)C(=O)N[C@@H](CCCCN)C(=O)O)NC(=O)[C@H](CC(N)=O)NC(=O)[C@@H]3CSSC[C@H](NC(=O)[C@H](C)NC(=O)[C@H](C)NC(=O)[C@H](Cc4c[nH]cn4)NC(=O)CNC(=O)[C@H](C(C)C)NC(=O)[C@H](CCCCN)NC(=O)[C@H](Cc4ccccc4)NC(=O)[C@@H]4CCCN4C(=O)[C@H](CO)NC(=O)[C@H](CC(C)C)NC(=O)[C@H](CC(C)C)NC(=O)[C@H](CC(=O)O)NC(=O)[C@@H](NC(=O)[C@@H](NC(=O)[C@H](C)N)[C@@H](C)O)CSSC[C@H](NC(=O)[C@H](Cc4c[nH]c5ccccc45)NC(=O)CNC(=O)CNC(=O)[C@H](CCCNC(=N)N)NC(=O)[C@H](CCCCN)NC(=O)CNC(=O)[C@H](CCCNC(=N)N)NC(=O)[C@H](C)NC1=O)C(=O)N[C@@H](CC(N)=O)C(=O)N[C@@H](CCCCN)C(=O)N[C@@H](CCCNC(=N)N)C(=O)N[C@@H](C)C(=O)N[C@@H](C(C)C)C(=O)N3)C(=O)N[C@@H](C)C(=O)N[C@@H](C)C(=O)N[C@@H](Cc1c[nH]cn1)C(=O)N2 [ID10] (HELM PEPTIDE1{A.T.C.D.L.L.S.P.F.K.V.G.H.A.A.C.A.A.H.C.I.A.R.G.K.R.G.G.W.C.N.K.R.A.V.C.N.C.R.K}$PEPTIDE1,PEPTIDE1,3:R3-30:R3|PEPTIDE1,PEPTIDE1,16:R3-36:R3|PEPTIDE1,PEPTIDE1,20:R3-38:R3$$$V2.0; N-terminus and C-terminus assumed; bridges inferred)	16 µg/mL
CC[C@H](C)[C@@H]1NC(=O)[C@@H]2CSSC[C@@H](C(=O)N[C@@H](CCCNC(=N)N)C(=O)N[C@@H](CCCCN)C(=O)O)NC(=O)[C@H](CC(N)=O)NC(=O)[C@@H]3CSSC[C@H](NC(=O)[C@H](C)NC(=O)[C@H](C)NC(=O)[C@H](Cc4c[nH]cn4)NC(=O)[C@H](CCCCN)NC(=O)[C@H](C(C)C)NC(=O)[C@H](CCCCN)NC(=O)[C@H](Cc4ccccc4)NC(=O)[C@@H]4CCCN4C(=O)[C@H](CO)NC(=O)[C@H](CC(C)C)NC(=O)[C@H](CC(C)C)NC(=O)[C@H](CC(=O)O)NC(=O)[C@@H](NC(=O)[C@@H](NC(=O)[C@H](C)N)[C@@H](C)O)CSSC[C@H](NC(=O)[C@H](Cc4c[nH]c5ccccc45)NC(=O)CNC(=O)CNC(=O)[C@H](CCCNC(=N)N)NC(=O)[C@H](CCCCN)NC(=O)CNC(=O)[C@H](CCCNC(=N)N)NC(=O)[C@H](C)NC1=O)C(=O)N[C@@H](CC(=O)O)C(=O)N[C@@H](CCCCN)C(=O)N[C@@H](CCCNC(=N)N)C(=O)N[C@@H](C)C(=O)N[C@@H](C(C)C)C(=O)N3)C(=O)N[C@@H](C)C(=O)N[C@@H](C)C(=O)N[C@@H](Cc1c[nH]cn1)C(=O)N2 [ID9] (HELM PEPTIDE1{A.T.C.D.L.L.S.P.F.K.V.K.H.A.A.C.A.A.H.C.I.A.R.G.K.R.G.G.W.C.D.K.R.A.V.C.N.C.R.K}$PEPTIDE1,PEPTIDE1,3:R3-30:R3|PEPTIDE1,PEPTIDE1,16:R3-36:R3|PEPTIDE1,PEPTIDE1,20:R3-38:R3$$$V2.0; N-terminus and C-terminus assumed; bridges inferred)	16 µg/mL
